Experimental findings from US11186544B2 (BRISTOL-MYERS SQUIBB COMPANY, priority 2017, dated 2021) are described below.

One assay has as its target human FPR2 (Homo sapiens (Human), UniProt P25090). As to the kind of experiment: FPR2 cyclic adenosine monophosphate (cAMP) assay. The following applies: CHO cells overexpressing human FPR2; inhibition of forskolin (5 μM) stimulated cAMP; read-out: hFPR2 cAMP2 EC50. The assay is classed as cell-based. The procedure: FPR2 and FPR1 Cyclic Adenosine Monophosphate (cAMP) Assays. A mixture of forskolin (5 μM final for FPR2 or 10 μM final for FPR1) and IBMX (200 μM final) were added to 384-well Proxiplates (Perkin-Elmer) pre-dotted with test compounds in DMSO (1% final) at final concentrations in the range of 0.020 nM to 100 μM. Chinese Hamster Ovary cells (CHO) overexpressing human FPR1 or human FPR2 receptors were cultured in F-12 (Ham's) medium supplemented with 10% qualified FBS, 250 μg/ml zeocin and 300 μg/ml hygromycin (Life Technologies). Reactions were initiated by adding 2,000 human FPR2 cells per well or 4,000 human FPR1 cells per well in Dulbecco's PBS (with calcium and magnesium) (Life Technologies) supplemented with 0.1% BSA (Perkin-Elmer). The reaction mixtures were incubated for 30 min at room temperature. The level of intracellular cAMP was determined using the HTRF HiRange cAMP assay reagent kit (Cisbio) according to manufacturer's instruction. Solutions of cryptate conjugated anti-cAMP and d2 flurorophore-labelled cAMP were made in a supplied lysis buffer separately. Upon completion of the reaction, the cells were lysed with equal volume of the d2-cAMP solution and anti-cAMP solution. […] The potency and activity of a compound to inhibit cAMP production was then determined by fitting to a 4-parametric logistic equation from a plot of cAMP level versus compound concentrations.

The target in a further assay is human FPR1 (Homo sapiens (Human), UniProt P21462). As to the kind of experiment: FPR1 cyclic adenosine monophosphate (cAMP) assay. It is filed as cell-based. The conditions noted are these: CHO cells overexpressing human FPR1; inhibition of forskolin (10 μM) stimulated cAMP; read-out: hFPR1 cAMP EC50. Here is the method: FPR2 and FPR1 Cyclic Adenosine Monophosphate (cAMP) Assays. A mixture of forskolin (5 μM final for FPR2 or 10 μM final for FPR1) and IBMX (200 μM final) were added to 384-well Proxiplates (Perkin-Elmer) pre-dotted with test compounds in DMSO (1% final) at final concentrations in the range of 0.020 nM to 100 μM. Chinese Hamster Ovary cells (CHO) overexpressing human FPR1 or human FPR2 receptors were cultured in F-12 (Ham's) medium supplemented with 10% qualified FBS, 250 μg/ml zeocin and 300 μg/ml hygromycin (Life Technologies). Reactions were initiated by adding 2,000 human FPR2 cells per well or 4,000 human FPR1 cells per well in Dulbecco's PBS (with calcium and magnesium) (Life Technologies) supplemented with 0.1% BSA (Perkin-Elmer). The reaction mixtures were incubated for 30 min at room temperature. The level of intracellular cAMP was determined using the HTRF HiRange cAMP assay reagent kit (Cisbio) according to manufacturer's instruction. Solutions of cryptate conjugated anti-cAMP and d2 flurorophore-labelled cAMP were made in a supplied lysis buffer separately. Upon completion of the reaction, the cells were lysed with equal volume of the d2-cAMP solution and anti-cAMP solution. After a 1-h room temperature incubation, time-resolved fluorescence intensity was measured using the Envision (Perkin-Elmer) at 400 nm excitation and dual emission at 590 nm and 665 nm. A calibration curve was constructed with an external cAMP standard at concentrations ranging from 1 μM to 0.1 pM by plotting the fluorescent intensity ratio from 665 nm emission to the intensity from the 590 nm emission against cAMP concentrations. The potency and activity of a compound to inhibit cAMP production was then determined by fitting to a 4-parametric logistic equation from a plot of cAMP level versus compound concentrations.
Chain of human FPR1 (P21462 whole entry): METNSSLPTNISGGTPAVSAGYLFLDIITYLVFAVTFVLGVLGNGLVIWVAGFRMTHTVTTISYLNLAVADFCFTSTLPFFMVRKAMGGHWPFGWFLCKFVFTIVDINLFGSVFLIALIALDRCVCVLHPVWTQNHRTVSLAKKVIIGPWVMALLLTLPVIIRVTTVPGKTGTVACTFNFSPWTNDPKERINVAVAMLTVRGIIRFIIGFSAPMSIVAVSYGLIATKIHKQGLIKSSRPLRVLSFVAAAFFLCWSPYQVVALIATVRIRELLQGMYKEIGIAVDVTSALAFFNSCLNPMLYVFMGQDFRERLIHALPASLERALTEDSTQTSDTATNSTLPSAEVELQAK

Chain of human FPR2 (P25090 whole entry): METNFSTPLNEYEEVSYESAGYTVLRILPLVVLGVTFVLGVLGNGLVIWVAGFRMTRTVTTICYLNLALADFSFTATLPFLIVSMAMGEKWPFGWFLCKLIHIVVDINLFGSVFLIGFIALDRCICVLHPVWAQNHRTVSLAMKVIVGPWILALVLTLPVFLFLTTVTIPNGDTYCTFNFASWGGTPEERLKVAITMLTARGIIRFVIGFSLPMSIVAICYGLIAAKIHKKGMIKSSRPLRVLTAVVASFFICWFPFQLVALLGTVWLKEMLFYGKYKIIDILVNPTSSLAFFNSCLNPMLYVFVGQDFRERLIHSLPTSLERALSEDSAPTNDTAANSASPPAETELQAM

As a reminder, the EC50 is the concentration needed to bring the measured effect to its halfway point. Take `CS(=O)(=O)Nc1ccccc1-c1ccc(N2C[C@H](O)C[C@@H](NC(=O)Nc3ccc(Cl)cn3)C2=O)cc1` [Example 215]: the EC50 came out at 2 nM on human FPR2 and 260 nM on human FPR1.
The matching figures for `CS(=O)(=O)Nc1ccccc1-c1ccc(N2CCC[C@@H](NC(=O)Nc3ccc(Cl)cc3F)C2=O)c(Cl)c1` [Example 299, 1-[(3R)-1-{3-chloro-2′-methanesulfonamido-[1,1′-biphenyl]-4-yl}-2-oxopiperidin-3-yl]-3-(4-chloro-2-fluorophenyl)urea]: 5.5 nM and 130 nM.
For `NCc1cccc(-c2ccc(N3CCC[C@@H](NC(=O)Nc4ccc(Cl)cc4)C3=O)cc2)c1F` [Example 276, (R)-1-(1-(3′-(Aminomethyl)-2′-fluoro-[1,1′-biphenyl]-4-yl)-2-oxopiperidin-3-yl)-3-(4-chlorophenyl)urea] the same measures were 8.5 nM and 680 nM.
The matching figures for `Cc1ccc(NC(=O)N[C@@H]2CCCN(c3ccc(-c4ccccc4C(N)=O)cc3)C2=O)c(C)c1` [Example 175]: 520 nM and 2600 nM.
On to `O=C(Nc1ccc(C(F)(F)F)cc1)N[C@@H]1CCCN(c2ccc(-c3cccc(F)c3F)cc2)C1=O` [Example 125], for which the values for the EC50 at human FPR2 and on human FPR1 were 9 nM and 330 nM, respectively.
The matching figures for `COc1ccc(NC(=O)NC2CCCN(c3ccc(-c4ccccc4S(C)(=O)=O)cc3F)C2=O)cc1` (centres unmarked) [Example 17, 1-(1-(3-fluoro-2′-(methylsulfonyl)-[1,1′-biphenyl]-4-yl)-2-oxopiperidin-3-yl)-3-(4-methoxyphenyl)urea]: 10 nM and 170 nM.
The matching figures for `CS(=O)(=O)Nc1ccccc1-c1ccc(N2C[C@H](O)C[C@@H](NC(=O)Nc3ccc(Cl)cc3F)C2=O)cc1` [Example 277, N-(4′-((3R,5R)-3-(3-(4-chloro-2-fluorophenyl)ureido)-5-hydroxy-2-oxopiperidin-1-yl)-[1,1′-biphenyl]-2-yl)methanesulfonamide]: 0.17 nM and 8.4 nM.
For `Cc1ccncc1-c1ccc(N2CCCC(NC(=O)Nc3ccc(C(F)(F)F)cc3)C2=O)cc1` (centres unmarked) [Example 47, 1-(1-(4-(4-methylpyridin-3-yl)phenyl)-2-oxopiperidin-3-yl)-3-(4-(trifluoromethyl)phenyl)urea] the same measures were 330 nM and 1600 nM.
On to `COc1cc(-c2ccccc2NS(C)(=O)=O)ccc1N1CCC[C@@H](NC(=O)Nc2ncc(C(F)(F)F)cc2F)C1=O` [Example 255], for which the EC50 on human FPR2 was determined as 17 nM; on human FPR1, 3300 nM.
The matching figures for `CS(=O)(=O)Nc1ccccc1-c1ccc(N2CCC[C@@H](NC(=O)Nc3ccc(Cl)cc3)C2=O)cc1` [Example 86]: 0.14 nM and 32 nM.
For `Cc1cnc(NC(=O)N[C@@H]2CCCN(c3ccc(-c4ccccc4NS(C)(=O)=O)cc3F)C2=O)cn1` [Example 258] the same measures were 20 nM and over 10000 nM.
For `CS(=O)(=O)Nc1ccccc1-c1ccc(N2CCC[C@@H](NC(=O)Nc3ccc(C(F)(F)F)cc3F)C2=O)cc1` [Example 212] the same measures were 0.63 nM and 120 nM.
As to `CS(=O)(=O)Nc1ccccc1-c1cc(F)c(N2CCC[C@@H](NC(=O)Nc3ccc(Cl)cc3)C2=O)c(F)c1` [Example 260, (R)—N-(4′-(3-(3-(4-chlorophenyl)ureido)-2-oxopiperidin-1-yl)-3′,5′-difluoro-[1,1′-biphenyl]-2-yl)methanesulfonamide], the EC50 on human FPR2 was 0.59 nM; on human FPR1, 210 nM.
For `CN(c1ncccc1-c1ccc(N2CCC[C@@H](NC(=O)Nc3ccc(C(F)(F)F)cc3)C2=O)cc1)S(C)(=O)=O` [Example 145] the same measures were 0.36 nM and 15 nM.
Take `CS(=O)(=O)c1ccccc1-c1ccc(N2CCCC(NC(=O)Nc3ccc(Cl)nn3)C2=O)c(F)c1` (centres unmarked) [Example 27, 1-(6-chloropyridazin-3-yl)-3-(1-(3-fluoro-2′-(methylsulfonyl)-[1,1′-biphenyl]-4-yl)-2-oxopiperidin-3-yl)urea]: the EC50 was found to be 400 nM on human FPR2 and 950 nM at human FPR1.
The matching figures for `NC(=O)c1ccccc1-c1ccc(N2CCC[C@@H](NC(=O)Nc3ccc(Cl)cc3)C2=O)c(F)c1` [Example 78]: 0.89 nM and 42 nM.
The matching figures for `CS(=O)(=O)Nc1ccccc1-c1ccc(N2CCC[C@@H](NC(=O)Nc3ccc(OC(F)F)nc3)C2=O)cc1` [Example 257]: 17 nM and 3500 nM.
For `CS(=O)(=O)Nc1ccccc1-c1ccc(N2CCC[C@@H](NC(=O)Nc3ccc(Cl)cc3F)C2=O)cc1` [Example 188] the same measures were 0.13 nM and 25 nM.
For the compound `O=C(Nc1ccc(C(F)(F)F)cc1)N[C@H]1CCCN(c2ccc(-c3ccccc3CO)cc2)C1=O` [Example 58], the EC50 was 9.2 nM at human FPR2 and 280 nM at human FPR1.
